The values below come from patent publication US4820694A, “Modifications of 3-O-demethylmycinose in macrocin and lactenocin” (priority 1986, dated 1989).

Usually ED50 stands for the midpoint of the dose-response relation.

Assay [1] relates to Streptococcus pyogenes C203. In words: standard agar-dilution MIC assay. The class given is cell-based. The method, then:
(§1) The MIC's in Table III were determined by standard agar-dilution assays. The MIC's in Table IV were obtained using conventional brothdilution microtiter tests.

The test system of assay [2] is Staphylococcus aureus X1.1. Briefly: standard agar-dilution MIC assay. Format: cell-based. The method, then:
as §1

The subject of assay [3] is Pseudomonas aeruginosa X239. Briefly: standard agar-dilution MIC assay. Particulars: agar-dilution. Format: cell-based. The method, then:
as §1

The subject of assay [4] is Haemophilus influenzae 76. Briefly: standard agar-dilution MIC assay. Format: cell-based. The note with it: agar-dilution, Ampicillin-resistant strain. As to the method:
as §1

For assay [5], the system named is Klebsiella pneumoniae X68. In words: standard agar-dilution MIC assay. The class given is cell-based. Particulars: agar-dilution. The method, then:
as §1

In assay [6] the test system is Staphylococcus epidermidis 222. In words: standard agar-dilution MIC assay. Format: cell-based. The method, then: as §1
For assay [7], the system named is Haemophilus influenzae C.L. In words: standard agar-dilution MIC assay. Format: cell-based. The note with it: agar-dilution, Ampicillin-sensitive strain. The method, then: as §1
The subject of assay [8] is Staphylococcus epidermidis EPI1. In words: standard agar-dilution MIC assay. The class given is cell-based. As to the method: as §1
Assay [9] relates to Staphylococcus aureus X400. Briefly: standard agar-dilution MIC assay. The class given is cell-based. The method, then:
as §1

Assay [10] has as its system Streptococcus Group D X66. In words: standard agar-dilution MIC assay. Format: cell-based. As to the method: as §1
The test system of assay [11] is Streptococcus Group D 9960. Briefly: standard agar-dilution MIC assay. The class given is cell-based. The method, then: as §1
Assay [12] has as its system Staphylococcus aureus V41. In words: standard agar-dilution MIC assay. Format: cell-based. The method, then: as §1
Assay [13] concerns Streptococcus sp. 19F. Briefly: broth-dilution microtiter MIC test. Format: cell-based. Particulars: broth-dilution microtiter. As to the method:
as §1

Assay [14] has as its system Pasteurella hemolytica 22C. Briefly: broth-dilution microtiter MIC test. The class given is cell-based. Particulars: broth-dilution microtiter. The method, then: as §1
The test system of assay [15] is Mycoplasma hyopneumoniae S5972. Briefly: broth-dilution microtiter MIC test. The note with it: broth-dilution microtiter. The class given is cell-based. The method, then: as §1
In assay [16] the test system is Mycoplasma gallisepticum 29C. Briefly: broth-dilution microtiter MIC test. Format: cell-based. Particulars: broth-dilution microtiter. As to the method: as §1
For assay [17], the system named is Pasteurella hemolytica 41D. Briefly: broth-dilution microtiter MIC test. Format: cell-based. The note with it: broth-dilution microtiter. As to the method:
as §1

For assay [18], the system named is Pasteurella multocida 17E. Briefly: broth-dilution microtiter MIC test. Format: cell-based. Particulars: broth-dilution microtiter; Bovine isolate. The method, then:
as §1

Assay [19] has as its system Pasteurella hemolytica 23C. In words: broth-dilution microtiter MIC test. The class given is cell-based. The note with it: broth-dilution microtiter. As to the method: as §1
Assay [20] concerns Pasteurella multocida 68C. Briefly: broth-dilution microtiter MIC test. Format: cell-based. The note with it: broth-dilution microtiter. The method, then:
as §1

The test system of assay [21] is Bordetella bronchiseptica. Briefly: broth-dilution microtiter MIC test. The class given is cell-based. Particulars: broth-dilution microtiter. As to the method:
as §1

Assay [22] relates to Staphylococcus aureus 19C. In words: broth-dilution microtiter MIC test. Particulars: broth-dilution microtiter. Format: cell-based. As to the method:
as §1

In assay [23] the test system is Mycoplasma synoviae 40A. In words: broth-dilution microtiter MIC test. The class given is cell-based. The note with it: broth-dilution microtiter. The method, then:
as §1

Assay [24] deals with Pasteurella multocida 40G. Briefly: broth-dilution microtiter MIC test. The class given is cell-based. The note with it: broth-dilution microtiter. As to the method: as §1
The test system of assay [25] is Mycoplasma gallisepticum 36H. Briefly: broth-dilution microtiter MIC test. Format: cell-based. Particulars: broth-dilution microtiter. The method, then:
as §1

Assay [26] deals with Pasteurella multocida 60A. In words: broth-dilution microtiter MIC test. Particulars: broth-dilution microtiter; Avian isolate. The class given is cell-based. As to the method:
as §1

Assay [27] relates to Pasteurella multocida 22A. In words: broth-dilution microtiter MIC test. The class given is cell-based. Particulars: broth-dilution microtiter. The method, then:
as §1

The subject of assay [28] is Mycoplasma hyorhinis 29E. In words: broth-dilution microtiter MIC test. The class given is cell-based. Particulars: broth-dilution microtiter. As to the method: as §1
Assay [29] concerns Mycoplasma gallisepticum 15E. In words: broth-dilution microtiter MIC test. Format: cell-based. Particulars: broth-dilution microtiter. The method, then: as §1
Assay [30] concerns Staphylococcus aureus S13E. Briefly: microbe, parasite or virus in culture. Format: cell-based. As to the method:
as §1

Assay [31] relates to Streptococcus pneumoniae Park I. Briefly: microbe, parasite or virus in culture. The class given is cell-based. The method, then:
as §1

For assay [32], the system named is Escherichia coli EC14. Briefly: standard agar-dilution MIC assay. Particulars: agar-dilution, read-out: MIC. The class given is cell-based. The method, then:
as §1

For assay [33], the system named is Streptococcus Group D 2041. In words: standard agar-dilution MIC assay. Format: cell-based. Particulars: GROUPD2041. As to the method:
as §1

Assay [34] deals with Streptococcus pyogenes C203. Briefly: protection of mice experimentally infected with S. pyogenes C203. Format: in vivo. Particulars: mice, mg/kg × 2, doses given 1 and 4 hours postinfection, read-out: ED50. In a few lines:
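Mice experimentally infected with S. pyogenes C203 got two doses of test compound, at 1 and 4 h postinfection. The ED50 is the dose in mg/kg (per dose, given twice) that protected 50% of the animals.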

[35] abbreviates: Pseudomonas aeruginosa, X239, read-out: MIC.
Setting [36] is: Haemophilus influenzae, 76, read-out: MIC.
Setting [37] is: Klebsiella pneumoniae, X68, read-out: MIC.
The mark [38] stands for this setting: Staphylococcus epidermidis, 222.
[39] abbreviates: Haemophilus influenzae, read-out: MIC.
[40] abbreviates: Staphylococcus epidermidis, EPI1.

Values after ≈ are worked out from the molar mass of the structure shown. Where two headings read alike, the source gives them in different places.

With `CC[C@H]1OC(=O)C[C@@H](O)[C@H](C)[C@@H](O[C@@H]2O[C@H](C)[C@@H](O)[C@H](N(C)C)[C@H]2O)[C@@H](CC=O)C[C@@H](C)C(=O)/C=C/C(C)=C/[C@@H]1CO[C@@H]1O[C@H](C)[C@@H](OC(=O)COc2ccccc2)[C@@H](O)[C@H]1OC` [Compound 34, 4"-O-Phenoxyacetyl-lactenocin], the MIC in assay [1] (agar-dilution) is 0.12 µg/mL (≈ 0.135 µM); in [2] (agar-dilution), 1 µg/mL (≈ 1.12 µM); in [3], “-- (Not active at 128 mcg/mL, the highest level tested)”; in assay [4], 4 µg/mL (≈ 4.48 µM); in [5] it was “-- (Not active at 128 mcg/mL, the highest level tested)”; in [6] (agar-dilution), 0.5 µg/mL (≈ 0.561 µM). Besides, the MIC in assay [7] turned out to be 4 µg/mL (≈ 4.48 µM); in assay [8] (agar-dilution) it was 1 µg/mL (≈ 1.12 µM); in [9] (agar-dilution, Methicillin-resistant strain), 1 µg/mL (≈ 1.12 µM); in assay [10] it was 1 µg/mL (≈ 1.12 µM); in [11], 1 µg/mL (≈ 1.12 µM); in assay [12] (agar-dilution, Penicillin-resistant strain) it was 1 µg/mL (≈ 1.12 µM). Also, the MIC in assay [13] was 1.56 µg/mL (≈ 1.75 µM); in [14] it was 25 µg/mL (≈ 28 µM); in [15] it was 0.097 µg/mL (≈ 0.109 µM); in assay [16], not above 0.048 µg/mL; in [17], 25 µg/mL (≈ 28 µM); in assay [18], 6.25 µg/mL (≈ 7.01 µM). The MIC in assay [19] came to 25 µg/mL (≈ 28 µM); in [20], 12.5 µg/mL (≈ 14 µM); in assay [21] it was 50 µg/mL (≈ 56.1 µM); in assay [22], 0.78 µg/mL (≈ 0.874 µM); in [23], 0.097 µg/mL (≈ 0.109 µM); in assay [24], 12.5 µg/mL (≈ 14 µM). For the same compound, the MIC in [25] came out at 12.5 µg/mL (≈ 14 µM); in assay [26] it was 12.5 µg/mL (≈ 14 µM); in assay [27], 12.5 µg/mL (≈ 14 µM); in assay [28], 6.25 µg/mL (≈ 7.01 µM); in [29] it was 25 µg/mL (≈ 28 µM); in assay [30] (agar-dilution), 1 µg/mL (≈ 1.12 µM). Moreover, the MIC in assay [31] (agar-dilution) stood at 0.12 µg/mL (≈ 0.135 µM).
In the case of `CCC1OC(=O)CC(O)C(C)C(OC2OC(C)C(O)C(N(C)C)C2O)C(CCOc2ccccc2)CC(C)C(=O)C=CC(C)=CC1COC1OC(C)C2OC(=S)OC2C1OC` (stereo not drawn) [Compound 59, 20-DH-20-O-Phenyl-lactenocin 3",4"-thiocarbonate], the MIC in assay [1] (Streptococcus pyogenes, C203) was 2 µg/mL (≈ 2.28 µM); in assay [2] (Staphylococcus aureus, X1.1), 1 µg/mL (≈ 1.14 µM); in assay [32], more than 128 µg/mL; in assay [3] (setting [35]) it was more than 128 µg/mL; in assay [4] (setting [36]), 128 µg/mL (≈ 146 µM); in assay [5] (setting [37]), more than 128 µg/mL. The MIC in assay [6] (setting [38]) is 0.5 µg/mL (≈ 0.569 µM); in assay [33], 32 µg/mL (≈ 36.4 µM); in assay [7] (setting [39]), 128 µg/mL (≈ 146 µM); in [8] (setting [40]), 2 µg/mL (≈ 2.28 µM); in assay [9] (Staphylococcus aureus, X400), 1 µg/mL (≈ 1.14 µM); in assay [10] (read-out: MIC), 16 µg/mL (≈ 18.2 µM). Moreover, the MIC in [12] (Staphylococcus aureus, V41) was 1 µg/mL (≈ 1.14 µM); in assay [30] (Staphylococcus aureus, S13E) it was 1 µg/mL (≈ 1.14 µM); in assay [31] (Streptococcus pneumoniae), 2 µg/mL (≈ 2.28 µM). Moreover, the ED50 worked out at 54 mg/kg in assay [34] (C203, Oral) and 10 mg/kg in assay [34] (C203, sc, Subcutaneous).
For the compound `CCC1OC(=O)CC(O)C(C)C(OC2OC(C)C(O)C(N(C)C)C2O)C(CCOc2ccccc2)CC(C)C(=O)C=CC(C)=CC1COC1OC(C)C2OC(C)(C)OC2C1OC` (stereo not drawn) [Compound 57, 20-DH-20-O-Phenyl-lactenocin-3",4"-isopropylidene Ketal], the MIC in assay [1] (Streptococcus pyogenes, C203) was 2 µg/mL (≈ 2.28 µM); in assay [2] (Staphylococcus aureus, X1.1), 4 µg/mL (≈ 4.57 µM); in assay [32], more than 128 µg/mL; in assay [3] (setting [35]) it was more than 128 µg/mL; in assay [4] (setting [36]), more than 128 µg/mL; in assay [5] (setting [37]) it was more than 128 µg/mL. The MIC in [6] (setting [38]) was 2 µg/mL (≈ 2.28 µM); in assay [33] it was 64 µg/mL (≈ 73.1 µM); in [7] (setting [39]) it was more than 128 µg/mL; in [8] (setting [40]) it was 4 µg/mL (≈ 4.57 µM); in assay [9] (Staphylococcus aureus, X400), 4 µg/mL (≈ 4.57 µM); in assay [10] (read-out: MIC), 32 µg/mL (≈ 36.5 µM). Also, the MIC worked out at 4 µg/mL (≈ 4.57 µM) in assay [12] (Staphylococcus aureus, V41); 4 µg/mL (≈ 4.57 µM) in assay [30] (Staphylococcus aureus, S13E); 8 µg/mL (≈ 9.13 µM) in assay [31] (Streptococcus pneumoniae).
